Assay results reported in patent US11617777B2, “Cytotoxic and anti-mitotic compounds, and methods of using the same” (ZYMEWORKS BC INC., priority 2013, dated 2023).

Tested on: Jurkat cells
Assay: Cytotoxicity of compounds, CellTiter-Glo
Type: cell-based, Human
Conditions: Homo sapiens, Jurkat, Table 3; Cytotoxicity of Compounds on Jurkat Cells; read-out: EC50
Excerpt: Cell lines used: Human T-cell leukemia cell line Jurkat (ATCC: TIB-152); HCC1954 (ATCC: CRL. 2338); Human Pancreatic cells lines: AsPC-1 (ATCC: CRL-1682), BxPC-3 (ATCC: CRL.1687), HPAF-II (ATCC: CRL.1997), MiaPaCa2 (ATCC: CRL.1420), PANC-1 (ATCC: CRL.1469), Capan-1 (ATCC: HTB-79), Capan-2 (ATCC: HTB-80) and the Human gastric carcinoma cell line NCI-N87 (ATCC: CRL. 5822); AML-193 (ATCC: CRL.9589), CCRF-CEM (ATCC: CCL-119), DU145 (ATCC: HTB-81), PC-3 (ATCC: CRL.1435), A-431 (ATCC: CRL.1555), HT-29 (ATCC: HTB-38), A-172 (ATCC: CRL.1620), NCI-H358 (ATCC: CRL.5807), A549 (ATCC: CCL-185), Colo-205 (ATCC: CCL-222), MDA-MB-231 (ATCC: HTB-26), OVCAR-3 (ATCC: HTB-161), OV-90 (ATCC: CRL.11732), OE19 (Sigma: 96071721), RT 112/84 (Sigma: 85061106).
On the day prior to adding compounds, HCC1954 AsPC-1, BxPC-3, HPAF-II, MiaPaCa2, PANC-1, Capan-1, Capan-2 and NCI-N87 cells were added to opaque-walled 96-well tissue culture-treated microtiter plates using complete growth medium at a density of 2500 cells/100 microlitre (uL) of medium. These adherant cell lines cells were incubated for one night at 37° C./5% CO2 to allow the cells to attach to the microtiter plate surface. On the day that compounds were added, Jurkat cells are added to separate 96-well microtiter plates at 2500 cells/100 uL using the same growth medium as HCC1954. Compound were first serially diluted using dimethyl sulfoxide, and then the prepared dilutions are added to complete growth medium at five-times the final concentration—compounds were then titrated 1:3, eight steps. A control with no compound (growth medium alone) was included on each microtiter plate in sextuplicate. The prepared compounds titrations were added (twenty-five uL/well) in triplicate. The cells and compound titrations were incubated at 37° C./5% CO2 for three nights. After the incubation, cell viability is measured using CellTiter-Glo® reagent by adding thirty uL of prepared CellTiter-Glo® to each assay well. The assay is incubated for at least twenty minutes in the dark prior to measuring emitted luminescence using a microplate luminometer (500 ms integration time). The collected relative luminescence units (RLU) are converted to % cytotoxicity using the Growth medium alone control mentioned above (% Cytotoxicity=1−[Well RLU/average medium alone control RLU]).
GraphPad Prism was used for generation of EC50 values using three parameter non-linear regression curve fitting.

Structure (SMILES) | EC50 [nM]
CN[C@H](C(=O)N[C@H](C(=O)N(C)[C@H](/C=C(\C)C(=O)NS(=O)(=O)N1CCCCC1)C(C)C)C(C)(C)C)C(C)(C)c1ccccc1 [Compound 27, (S,E)-2,5-dimethyl-N-(piperidin-1-ylsulfonyl)-4-((S)—N,3,3-trimethyl-2-((S)-3-methyl-2-(methylamino)-3-phenylbutanamido)butanamido)hex-2-enamide] | 0.157
CN[C@H](C(=O)N[C@H](C(=O)N(C)[C@H](/C=C(\C)C(=O)NS(=O)(=O)c1cc(C(=O)OC)ccc1Cl)C(C)C)C(C)(C)C)C(C)(C)c1ccccc1 [Compound 74, methyl 4-chloro-3-(N—((S,E)-2,5-dimethyl-4-((S)—N,3,3-trimethyl-2-((S)-3-methyl-2-(methylamino)-3-phenylbutanamido)butanamido)hex-2-enoyl)sulfamoyl)benzoate] | 0.087
CN[C@H](C(=O)N[C@H](C(=O)N(C)[C@H](/C=C(\C)C(=O)NS(=O)(=O)c1cccc(NC(=O)C(F)(F)F)c1)C(C)C)C(C)(C)C)C(C)(C)c1ccccc1 [Compound 47, (S,E)-2,5-dimethyl-N-(3-(2,2,2-trifluoroacetamido)phenylsulfonyl)-4-((S)—N,3,3-trimethyl-2-((S)-3-methyl-2-(methylamino)-3-phenylbutanamido)butanamido)hex-2-enamide] | 0.261
CN[C@H](C(=O)N[C@H](C(=O)N1CCCCC1C=C(C)C(=O)NS(=O)(=O)c1ccc(CS)cc1)C(C)(C)C)C(C)(C)c1ccccc1 (mixture of isomers) [Compound 118, (S)—N—((S)-1-(2-(3-(4-(mercaptomethyl)phenylsulfonamido)-2-methyl-3-oxoprop-1-enyl)piperidin-1-yl)-3,3-dimethyl-1-oxobutan-2-yl)-3-methyl-2-(methylamino)-3-phenylbutanamide] | 13

Same assay, conditions: Homo sapiens, Jurkat, Table 6; Compound Cytotoxicity on Jurkat; read-out: EC50

Structure (SMILES) | EC50 [nM]
CN[C@H](C(=O)N[C@H](C(=O)N(C)[C@H](/C=C(\C)C(=O)NS(=O)(=O)Cc1ccccc1C)C(C)C)C(C)(C)C)C(C)(C)c1ccccc1 [Compound 64, (S,E)-2,5-dimethyl-N-(2-methylbenzylsulfonyl)-4-((S)—N,3,3-trimethyl-2-((S)-3-methyl-2-(methylamino)-3-phenylbutanamido)butanamido)hex-2-enamide] | 0.138
CN[C@H](C(=O)N[C@H](C(=O)N(C)[C@H](/C=C(\C)C(=O)NS(=O)(=O)Cc1cccc(OC(F)(F)F)c1)C(C)C)C(C)(C)C)C(C)(C)c1ccccc1 [Compound 103, (S,E)-2,5-dimethyl-N-(3-(trifluoromethoxy)benzylsulfonyl)-4-((S)—N,3,3-trimethyl-2-((S)-3-methyl-2-(methylamino)-3-phenylbutanamido)butanamido)hex-2-enamide] | 0.209
CN[C@@H](C(=O)N[C@H](C(=O)N(C)[C@H](/C=C(\C)C(=O)NS(=O)(=O)Cc1ccccc1)C(C)C)C(C)(C)C)C(C)(C)c1cccc(OC)c1 [Compound 92, (S,E)-N-(benzylsulfonyl)-4-((S)-2-((R)-3-(3-methoxyphenyl)-3-methyl-2-(methylamino)butanamido)-N,3,3-trimethylbutanamido)-2,5-dimethylhex-2-enamide] | 0.485
CN[C@H](C(=O)N[C@H](C(=O)N(C)[C@H](/C=C(\C)C(=O)NS(=O)(=O)Cc1cccc([N+](=O)[O-])c1)C(C)C)C(C)(C)C)C(C)(C)c1ccccc1 [Compound 70, (S,E)-2,5-dimethyl-N-(3-nitrobenzylsulfonyl)-4-((S)—N,3,3-trimethyl-2-((S)-3-methyl-2-(methylamino)-3-phenylbutanamido)butanamido)hex-2-enamide] | 0.856
CCCCC(C)S(=O)(=O)NC(=O)/C(C)=C/[C@H](C(C)C)N(C)C(=O)[C@@H](NC(=O)[C@@H](NC)C(C)(C)c1ccccc1)C(C)(C)C (stereo partly drawn) [Compound 33, (4S,E)-N-(hexan-2-ylsulfonyl)-2,5-dimethyl-4-((S)—N,3,3-trimethyl-2-((S)-3-methyl-2-(methylamino)-3-phenylbutanamido)butanamido)hex-2-enamide] | 0.636
